Laboratory results reported in ChEMBL document CHEMBL5661975, “Discovery and pharmacologic characterization of CP-724,714, a selective ErbB2 tyrosine kinase inhibitor” (Cancer Res, 2007).
Converted amounts (≈) assume the structure as drawn. The source made the active and inactive calls. The calls are words filed in the database; no cut-off is given here.

What was measured:
EFM-19 = test: Antiproliferative activity against human EFM-19 cells assessed as inhibition of cell growth; assay type: functional, cell-based
[1] = Antitumor activity against human erbB2 transfected FRE cells xenografted bearing female athymic nu-nu CD-1 mouse assessed as reduction in tumor erbB2 receptor phosphorylation at 25 mg/kg, po and measured at 30 mins by ELISA method relative to control; assay type: functional; set-up: scale not given: the % may be the effect or the level left; conditions: 0.5 h
[2] = Plasma concentration in human erbB2 transfected FRE cells xenografted bearing female athymic nu-nu CD-1 mouse at 25 mg/kg, po measured at 30 mins by liquid chromatography-tandem mass spectrometry analysis; assay type: ADME, organism-based
[3] = Toxicity in human erbB2 transfected FRE cells xenografted bearing female athymic nu-nu CD-1 mouse assessed as mortality at 50 mg/kg, po QD administrated for 8 to 40 days; assay type: organism-based; conditions: in vivo, time 8-40 day
BT-474 [4] = test: Antitumor activity against human BT-474 expressing erbB2 cells xenografted bearing female athymic nu-nu CD-1 mouse assessed as tumor regrowth at 30 mg/kg, po bid administration and measured at 40 day; assay type: functional, organism-based
BT-474 [5] = test: Antitumor activity against human BT-474 high expressing erbB2 cells xenografted bearing female athymic nu-nu CD-1 mouse assessed as reduction in tumor phospho-Akt level at 30 mg/kg, po after 0.5 hrs administration by western blot analysis relative to control; assay type: functional; set-up: scale not given: the % may be the effect or the level left
BT-474 [6] = test: Antitumor activity against human BT-474 high expressing erbB2 cells xenografted bearing female athymic nu-nu CD-1 mouse assessed as reduction in tumor phospho-Erk level at 30 to 100 mg/kg, po after 0.5 hrs administration by western blot analysis relative to control; assay type: functional; set-up: scale not given: the % may be the effect or the level left; conditions: dose 30-100 mg/kg
MDA-MB-468 = test: Antiproliferative activity against human MDA-MB-468 cells assessed as inhibition of cell growth; assay type: functional, cell-based
BT-474 [7] = test: Antitumor activity against human BT-474-erbB2 cells xenografted bearing female athymic nu-nu CD-1 mouse assessed as reduction in tumor erbB2 receptor phosphorylation, po administration by ELISA method; assay type: functional, organism-based
BT-20 = test: Antiproliferative activity against human BT-20 cells assessed as inhibition of cell growth; assay type: functional, cell-based
BT-474 [8] = test: Antitumor activity against human BT-474 high expressing erbB2 cells xenografted bearing female athymic nu-nu CD-1 mouse assessed as reduction in tumor phospho-Akt level at 100 mg/kg, po after 0.5 hrs administration by western blot analysis relative to control; assay type: functional; set-up: scale not given: the % may be the effect or the level left
MDA-MB-157 = test: Antiproliferative activity against human MDA-MB-157 cells assessed as inhibition of cell growth; assay type: functional, cell-based
HCC1419 = test: Antiproliferative activity against human HCC1419 cells assessed as inhibition of cell growth; assay type: functional, cell-based
MDA-MB-453 [9] = test: Antitumor activity against human MDA-MB-453 expressing erbB2 cells xenografted bearing female athymic nu-nu CD-1 mouse assessed as reduction in tumor erbB2 phosphorylation at 100 mg/kg, po bid administration and measured at 29 day by ELISA method relative to control; assay type: functional; set-up: scale not given: the % may be the effect or the level left
MDA-MB-231 = test: Antitumor activity against human MDA-MB-231 low expressing erbB2 cells xenografted bearing female athymic nu-nu CD-1 mouse assessed as inhibition in tumor growth at 100 mg/kg, po bid administrated for 14 to 31 days relative to control; assay type: functional; conditions: time 14-31 day
[10] = molecular target: T1, Receptor tyrosine-protein kinase erbB-2 (Homo sapiens, UniProt P04626); test: Inhibition of human recombinant intracellular domain of erbB2; assay type: cell-based
T1 sequence (P04626 whole entry, the tested form may be a part): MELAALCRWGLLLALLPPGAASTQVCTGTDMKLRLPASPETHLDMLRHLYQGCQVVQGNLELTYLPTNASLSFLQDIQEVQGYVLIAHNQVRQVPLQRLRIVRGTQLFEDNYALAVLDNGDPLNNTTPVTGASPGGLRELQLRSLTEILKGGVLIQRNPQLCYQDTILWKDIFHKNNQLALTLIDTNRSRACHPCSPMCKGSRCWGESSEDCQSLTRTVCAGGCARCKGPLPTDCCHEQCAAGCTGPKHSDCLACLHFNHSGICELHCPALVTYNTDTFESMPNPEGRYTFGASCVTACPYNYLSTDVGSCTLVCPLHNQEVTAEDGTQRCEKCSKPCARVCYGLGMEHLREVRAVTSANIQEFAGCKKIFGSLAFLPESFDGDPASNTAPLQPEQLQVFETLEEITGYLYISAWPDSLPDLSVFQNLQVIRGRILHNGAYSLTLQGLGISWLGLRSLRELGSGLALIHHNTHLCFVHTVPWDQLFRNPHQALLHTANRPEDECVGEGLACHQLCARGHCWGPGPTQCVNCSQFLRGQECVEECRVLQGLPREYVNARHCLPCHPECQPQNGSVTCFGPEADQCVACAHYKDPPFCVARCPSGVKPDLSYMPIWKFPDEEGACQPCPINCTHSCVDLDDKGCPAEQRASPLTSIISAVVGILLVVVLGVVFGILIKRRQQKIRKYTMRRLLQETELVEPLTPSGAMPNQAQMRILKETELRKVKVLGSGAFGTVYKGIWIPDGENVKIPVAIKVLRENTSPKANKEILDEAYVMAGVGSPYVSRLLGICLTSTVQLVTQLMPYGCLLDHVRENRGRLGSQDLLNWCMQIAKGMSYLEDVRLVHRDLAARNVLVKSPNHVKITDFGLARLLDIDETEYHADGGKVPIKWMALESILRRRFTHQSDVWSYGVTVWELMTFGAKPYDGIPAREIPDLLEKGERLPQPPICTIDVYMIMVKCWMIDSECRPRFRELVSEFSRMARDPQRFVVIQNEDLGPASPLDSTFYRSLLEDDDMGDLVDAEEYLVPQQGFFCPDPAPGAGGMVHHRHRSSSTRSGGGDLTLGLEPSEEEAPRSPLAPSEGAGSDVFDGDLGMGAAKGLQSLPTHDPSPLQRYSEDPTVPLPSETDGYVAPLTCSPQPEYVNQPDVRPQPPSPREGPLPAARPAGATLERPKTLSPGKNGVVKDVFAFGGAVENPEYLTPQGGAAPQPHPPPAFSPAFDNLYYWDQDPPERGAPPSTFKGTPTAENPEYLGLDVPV

BT-474 [11] = test: Antitumor activity against human BT-474 high expressing erbB2 cells xenografted bearing female athymic nu-nu CD-1 mouse assessed as inhibition in tumor growth at 100 mg/kg, po bid administrated for 8 to 40 days relative to control; assay type: functional; conditions: time 8-40 day
FRE = test: Antitumor activity against human erbB2 transfected FRE cells xenografted bearing female athymic nu-nu CD-1 mouse assessed as inhibition in tumor volume at 6.25 to 100 mg/kg, po QD administrated for 8 to 40 days; assay type: functional, organism-based; conditions: dose 6.25-100 mg/kg, time 8-40 day
[12] = Antiproliferative activity against human EFM-192A cells assessed as inhibition of cell growth; assay type: functional, cell-based
[13] = Antiproliferative activity against human SUM225CWN cells assessed as inhibition of cell growth; assay type: functional, cell-based
[14] = Antiproliferative activity against human SUM190PT cells assessed as inhibition of cell growth; assay type: functional, cell-based
MDA-MB-453 [15] = test: Antitumor activity against human MDA-MB-453 expressing erbB2 cells xenografted bearing female athymic nu-nu CD-1 mouse assessed as inhibition in tumor growth at 50 mg/kg, po bid administration and measured at 29 day relative to control; assay type: functional; conditions: MDA-MB-453, 696 h
[16] = Cmax in human erbB2 transfected FRE cells xenografted bearing female athymic nu-nu CD-1 mouse at 50 mg/kg, po QD administrated for 8 to 40 days by liquid chromatography-tandem mass spectrometry analysis; assay type: ADME, organism-based; conditions: in vivo, time 8-40 day
ZR-75-1 = test: Antiproliferative activity against human ZR-75-1 cells assessed as inhibition of cell growth; assay type: functional, cell-based
MDA-MB-361 = test: Antiproliferative activity against human MDA-MB-361 cells assessed as inhibition of cell growth; assay type: functional, cell-based
BT-474 [17] = test: Antitumor activity against human BT-474 cells expressing erbB2 xenografted bearing female athymic nu-nu CD-1 mouse assessed as inhibition in tumor growth at 100 mg/kg, po bid administration and measured at 40 day relative to control; assay type: functional; conditions: BT-474, 960 h
[18] = molecular target: T1, Receptor tyrosine-protein kinase erbB-2; test: Inhibition of human erbB2 intracellular domain transfected in mouse NIH3T3 cells assessed as potency reduction in autophosphorylation of the chimera erbB2 incubated for 2 hrs in the presence of EGF stimulation by westernblot analysis; assay type: cell-based
[19] = Antiproliferative activity against human KPL-1 cells assessed as inhibition of cell growth; assay type: functional, cell-based
MDA-MB-175-VII = test: Antiproliferative activity against human MDA-MB-175-VII cells assessed as inhibition of cell growth; assay type: functional, cell-based
MDA-MB-453 [20] = test: Antitumor activity against human MDA-MB-453 expressing erbB2 cells xenografted bearing female athymic nu-nu CD-1 mouse assessed as inhibition in tumor growth at 100 mg/kg, po bid administration and measured at 29 day relative to control; assay type: functional; conditions: MDA-MB-453, 696 h
LoVo = test: Antitumor activity against human LoVo low expressing erbB2 cells xenografted bearing female athymic nu-nu CD-1 mouse assessed as inhibition in tumor growth at 100 mg/kg, po bid administrated for 14 to 31 days relative to control; assay type: functional; conditions: time 14-31 day
BT-474 [21] = test: Antitumor activity against human BT-474 high expressing erbB2 cells xenografted bearing female athymic nu-nu CD-1 mouse assessed as inhibition in tumor regression at 100 mg/kg, po bid administrated for 8 to 40 days relative to control; assay type: functional; conditions: time 8-40 day
MDA-MB-453 [22] = test: Antitumor activity against human MDA-MB-453 high expressing erbB2 cells xenografted bearing female athymic nu-nu CD-1 mouse assessed as inhibition in tumor regression at 100 mg/kg, po bid administrated for 8 to 40 days relative to control; assay type: functional; conditions: time 8-40 day

With `COCC(=O)NC/C=C/c1ccc2ncnc(Nc3ccc(Oc4ccc(C)nc4)c(C)c3)c2c1` [CP-724714] the IC50 (EFM-19) was > 10000 nM, the Activity [1] was ~75% and the concentration at 0.5 h [2] was ~12500 ng/mL. The Activity [3] was “Non-Toxic”, the Activity (BT-474 [4]) was “Active” and the Activity (BT-474 [5]) was 42%. The Activity (BT-474 [6]) was ~75%, the IC50 (MDA-MB-468) was > 10000 nM and the EC50 (BT-474 [7]) was 0.77 µg/mL (≈ 1.64 µM). For the same molecule, the IC50 (BT-20) was > 10000 nM, the Activity (BT-474 [8]) was 70% and the IC50 (MDA-MB-157) was > 10000 nM. The IC50 (HCC1419) was 1000 nM, the Activity (MDA-MB-453 [9]) was 69% and the inhibition in vivo at 100 mg/kg (MDA-MB-231) was 46%. For the same molecule, the IC50 [10] was 10 nM, the inhibition in vivo at 100 mg/kg (BT-474 [11]) was 83% and the inhibition (FRE) was “Active”. The IC50 [12] was 960 nM, the IC50 [13] was 990 nM and the IC50 [14] was 710 nM. For the same molecule, the inhibition in vivo at 50 mg/kg (MDA-MB-453 [15]) was 66%, the Cmax [16] was 4500 ng/mL and the IC50 (ZR-75-1) was > 10000 nM. It also gave an IC50 (MDA-MB-361) of 3700 nM, an inhibition in vivo at 100 mg/kg (BT-474 [17]) of 100% and an IC50 [18] of 32 nM. The IC50 [19] was > 10000 nM, the IC50 (MDA-MB-175-VII) was 810 nM and the inhibition in vivo at 100 mg/kg (MDA-MB-453 [20]) was 83%. For the same molecule, the inhibition in vivo at 100 mg/kg (LoVo) was 46%, the inhibition in vivo at 100 mg/kg (BT-474 [21]) was 83% and the inhibition in vivo at 100 mg/kg (MDA-MB-453 [22]) was 83%.
